Measurements: publication PMC7932537, “Quantitative profiling of protease specificity” (PLoS Computational Biology, 2021)

Tests used:
MMP-2 [1] = assay: Substrate phage display with NGS: relative probability (RP) of P3-P1' tetramer clusters; type: biochemical, human; conditions: MMP2;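 also: ratio of tetramer probability after protease selection to that in naive phage library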
MMP-2 [2] = target: T1, MMP-2 (Homo sapiens, UniProt P08253); assay: K(obs) of individual phage substrates (set of 1369); type: biochemical; conditions: MMP2
T1 sequence (P08253 110-660): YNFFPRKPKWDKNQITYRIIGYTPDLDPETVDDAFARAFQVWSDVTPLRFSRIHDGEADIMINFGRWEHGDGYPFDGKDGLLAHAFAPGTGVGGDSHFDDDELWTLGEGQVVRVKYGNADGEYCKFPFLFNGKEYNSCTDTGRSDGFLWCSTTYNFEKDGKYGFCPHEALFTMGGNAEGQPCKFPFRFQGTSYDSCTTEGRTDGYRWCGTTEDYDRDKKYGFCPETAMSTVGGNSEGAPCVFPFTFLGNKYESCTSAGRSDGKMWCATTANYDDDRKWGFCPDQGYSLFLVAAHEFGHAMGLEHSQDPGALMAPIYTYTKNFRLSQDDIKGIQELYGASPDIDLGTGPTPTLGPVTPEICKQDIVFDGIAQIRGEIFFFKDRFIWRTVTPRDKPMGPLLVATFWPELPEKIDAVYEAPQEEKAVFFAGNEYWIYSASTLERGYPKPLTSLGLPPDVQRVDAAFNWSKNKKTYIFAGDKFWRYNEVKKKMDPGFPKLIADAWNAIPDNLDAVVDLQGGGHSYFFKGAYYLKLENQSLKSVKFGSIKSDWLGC

MMP-9 = MMP-9 (Homo sapiens, UniProt P14780); assay: as above; type: biochemical; conditions: MMP9
[3] = RP of the P3-P1' tetramer contained in the substrate
[4] = individual phage substrate of the set of 1369 peptides, cleavage position marked by '-'
[5] = individual phage substrate of the set of 1369 peptides, dash in the sequence marks the cleavage position
[6] = RP of the P3-P1' tetramer contained in the substrate (substrate phage display with NGS)
[7] = individual phage substrates, set of 1369 peptides, cleavage position marked by hyphen in sequence
[8] = individual phage substrates, set of 1369 peptides, hyphen in sequence marks cleavage position

Chain of MMP-9 (P14780 94-707): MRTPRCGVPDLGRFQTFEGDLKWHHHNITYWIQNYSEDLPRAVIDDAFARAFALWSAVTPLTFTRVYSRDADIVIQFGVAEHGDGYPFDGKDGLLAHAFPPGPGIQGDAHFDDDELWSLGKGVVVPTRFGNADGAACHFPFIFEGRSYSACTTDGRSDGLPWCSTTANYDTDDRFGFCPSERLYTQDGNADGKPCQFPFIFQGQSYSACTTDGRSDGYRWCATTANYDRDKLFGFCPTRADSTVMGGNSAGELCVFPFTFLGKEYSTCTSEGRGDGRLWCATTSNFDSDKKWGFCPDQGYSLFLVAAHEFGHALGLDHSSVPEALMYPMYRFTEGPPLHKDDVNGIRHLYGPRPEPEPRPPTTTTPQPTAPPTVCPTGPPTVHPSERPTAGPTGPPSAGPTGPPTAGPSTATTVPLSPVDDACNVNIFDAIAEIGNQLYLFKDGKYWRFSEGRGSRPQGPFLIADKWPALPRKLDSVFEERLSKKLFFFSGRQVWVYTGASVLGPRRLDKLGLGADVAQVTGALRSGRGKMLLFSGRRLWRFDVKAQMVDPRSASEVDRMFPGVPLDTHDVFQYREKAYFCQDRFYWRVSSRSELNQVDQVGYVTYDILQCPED

Substance	relative probability (RP) (MMP-2 [1]; [3])	Kobs (MMP-2 [2]; [4]) [M⁻¹ s⁻¹]	Kobs (MMP-9; [5]) [M⁻¹ s⁻¹]	relative probability (RP) (MMP-2 [1]; [6])	Kobs (MMP-2 [2]; [7]) [M⁻¹ s⁻¹]	Kobs (MMP-9; [8]) [M⁻¹ s⁻¹]
AHYAS-LTASG	26.9916	10866.7	0	–	–	–
KMPSF-LTASG	–	–	–	29.537	8321.48	8941.32
NRPAS-WTASG	–	–	–	32.4643	12792.1	3253.29
SGPKW-IIQTA	22.5059	2687.73	12792.1	–	–	–
SGPAA-LLGTA	35.8015	8941.32	12792.1	–	–	–
SGVRF-LMNTA	15.0438	1418.96	9740.44	–	–	–
SGSMR-LVLTA	–	–	–	0	0	0
AAWAS-ITASG	12.5247	6396.07	0	–	–	–
SGPMF-LWTTA	18.5721	1283.43	10866.7	–	–	–
SGARS-MRLTA	–	–	–	12.2991	0	762.325
GAPWG-IHTAS	25.1508	12792.1	12792.1	–	–	–
SGPRS-LYTTA	33.3704	12792.1	12792.1	–	–	–
TSFRM-LTASG	–	–	–	0.2112	0	0
SGVRW-YSNTA	17.3102	874.197	5667.28	–	–	–
LLYAS-LTASG	–	–	–	26.9916	12792.1	990.764
TQVFG-LTASG	–	–	–	12.5523	2687.73	5461.43
GDMRH-LSTAS	–	–	–	14.413	1561.44	799.117

Substance	relative probability (RP) (MMP-2 [1]; [3])	Kobs (MMP-2 [2]; [4]) [M⁻¹ s⁻¹]	Kobs (MMP-9; [5]) [M⁻¹ s⁻¹]	relative probability (RP) (MMP-2 [1]; [6])	Kobs (MMP-2 [2]; [7]) [M⁻¹ s⁻¹]	Kobs (MMP-9; [8]) [M⁻¹ s⁻¹]
GIPYH-LATAS	27.2418	1816.46	7015.91	–	–	–
GFAWS-LHTAS	7.006	654.784	2916.17	–	–	–
ETMLA-LTASG	–	–	–	5.6722	484.315	0
PRLTH-LTASG	–	–	–	4.299	1610.61	27.918
SGPMA-LSRTA	34.1737	8321.48	12792.1	–	–	–
GSGYH-LRHTT	0.08149	231.616	0	–	–	–
GIPRP-VMTAS	29.4989	6688.74	6131.32	–	–	–
GNVRS-LITAS	12.3051	12792.1	2476.66	–	–	–
TRIAY-LTASG	27.9862	12792.1	3165.09	–	–	–
DPWRA-LTASG	22.4074	6396.07	6396.07	–	–	–
RQWYG-ITASG	0.0533	142.481	4922.1	–	–	–
GGYAG-LRTAS	20.9112	4082.43	0	–	–	–
GTPYP-LRTAS	–	–	–	30.8058	12792.1	12792.1
FPVLS-LTASG	–	–	–	10.8506	10866.7	6396.07
SGPVM-LRGTA	–	–	–	25.0294	12792.1	12792.1
SLPTS-LTASG	–	–	–	28.926	8321.48	2097.28
QPLSW-VTASG	11.7463	12792.1	4922.1	–	–	–
